How the values were obtained:
Assay in all cases: relative viability (nuclei count vs DMSO), 5 days (fraction); higher = more cells survive
[1] = test system: UMC-11
Procedure, shortened: (§1)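 Relative viability equals treated-well nuclei counts divided by vehicle-well nuclei counts. Counts came from 4× images of lung cancer cell lines grown in 1536-well plates for 5 days after pin-tool dosing on the day after seeding. Dosing used one drug alone or a fixed anchor-drug dose plus five library-drug doses (not always all listed) in √10 steps, and values are medians of duplicate plates.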

[2] = test system: NCI-H2405
Procedure, shortened: as §1

[3] = test system: NCI-H1437
Procedure, shortened: as §1

[4] = test system: LCLC-97TM1
Procedure, shortened: as §1

[5] = test system: NCI-H2085
Procedure, shortened: as §1

[6] = test system: NCI-H441
Procedure, shortened: as §1

[7] = test system: NCI-H2170
Procedure, shortened: as §1

[8] = test system: ChaGo-K-1
Procedure, shortened: as §1

[9] = test system: ABC-1
Procedure, shortened: as §1

[10] = test system: NCI-H2023
Procedure, shortened: as §1

[11] = test system: HCC-78
Procedure, shortened: as §1

[12] = test system: NCI-H322M
Procedure, shortened: as §1

[13] = test system: NCI-H1355
Procedure, shortened: as §1

[14] = test system: SK-MES-1
Procedure, shortened: as §1

[15] = test system: NCI-H2009
Procedure, shortened: as §1

[16] = test system: LOU-NH91
Procedure, shortened: as §1

[17] = test system: HOP-62
Procedure, shortened: as §1

[18] = test system: NCI-H727
Procedure, shortened: as §1

[19] = test system: NCI-H23
Procedure, shortened: as §1

[20] = test system: NCI-H1792
Procedure, shortened: as §1

[21] = test system: RERF-LC-KJ
Procedure, shortened: as §1

[22] = test system: NCI-H650
Procedure, shortened: as §1

[23] = test system: NCI-H1755
Procedure, shortened: as §1

O=C(O)CCCCC(CCSCc1ccccc1)SCc1ccccc1 (stereo not given) [CPI-613] + COc1cccc2cc(-c3nc([C@H]4CC[C@H](C(=O)O)CC4)n4ncnc(N)c34)[nH]c12 [OSI-027] (partner 0.5 µM)
relative viability ([1]; first compound 5 µM): 0.407
relative viability ([1]; first compound 15.81 µM): 0.369
relative viability ([1]; first compound 50 µM): 0.426
relative viability ([1]; first compound 158.11 µM): 0.124
relative viability ([1]; first compound 500 µM): 0.118
relative viability ([2]; first compound 5 µM): 0.638
relative viability ([2]; first compound 15.81 µM): 0.582
relative viability ([2]; first compound 50 µM): 0.588
relative viability ([2]; first compound 158.11 µM): 0.533
relative viability ([2]; first compound 500 µM): 0.513
relative viability ([3]; first compound 5 µM): 0.892
relative viability ([3]; first compound 15.81 µM): 0.814
relative viability ([3]; first compound 50 µM): 0.818
relative viability ([3]; first compound 158.11 µM): 0.245
relative viability ([3]; first compound 500 µM): 0.0279
relative viability ([4]; first compound 5 µM): 0.508
relative viability ([4]; first compound 15.81 µM): 0.519
relative viability ([4]; first compound 50 µM): 0.67
relative viability ([4]; first compound 158.11 µM): 0.474
relative viability ([4]; first compound 500 µM): 0.0503
relative viability ([5]; first compound 5 µM): 0.727
relative viability ([5]; first compound 15.81 µM): 0.659
relative viability ([5]; first compound 50 µM): 0.787
relative viability ([5]; first compound 158.11 µM): 0.308
relative viability ([5]; first compound 500 µM): 0.112
relative viability ([6]; first compound 5 µM): 0.615
relative viability ([6]; first compound 15.81 µM): 0.596
relative viability ([6]; first compound 50 µM): 0.586
relative viability ([6]; first compound 158.11 µM): 0.255
relative viability ([6]; first compound 500 µM): 0.0397
relative viability ([7]; first compound 5 µM): 0.718
relative viability ([7]; first compound 15.81 µM): 0.715
relative viability ([7]; first compound 50 µM): 0.662
relative viability ([7]; first compound 158.11 µM): 0.482
relative viability ([7]; first compound 500 µM): 0.101
relative viability ([8]; first compound 5 µM): 0.61
relative viability ([8]; first compound 15.81 µM): 0.509
relative viability ([8]; first compound 50 µM): 0.53
relative viability ([8]; first compound 158.11 µM): 0.377
relative viability ([8]; first compound 500 µM): 0.0966
relative viability ([9]; first compound 5 µM): 0.404
relative viability ([9]; first compound 15.81 µM): 0.443
relative viability ([9]; first compound 50 µM): 0.49
relative viability ([9]; first compound 158.11 µM): 0.175
relative viability ([9]; first compound 500 µM): 0.167
relative viability ([10]; first compound 5 µM): 0.407
relative viability ([10]; first compound 15.81 µM): 0.303
relative viability ([10]; first compound 50 µM): 0.29
relative viability ([10]; first compound 158.11 µM): 0.0518
relative viability ([10]; first compound 500 µM): 0.0054
relative viability ([11]; first compound 5 µM): 0.351
relative viability ([11]; first compound 15.81 µM): 0.377
relative viability ([11]; first compound 50 µM): 0.373
relative viability ([11]; first compound 158.11 µM): 0.351
relative viability ([11]; first compound 500 µM): 0.4
relative viability ([12]; first compound 5 µM): 0.511
relative viability ([12]; first compound 15.81 µM): 0.422
relative viability ([12]; first compound 50 µM): 0.515
relative viability ([12]; first compound 158.11 µM): 0.336
relative viability ([12]; first compound 500 µM): 0.0015
relative viability ([13]; first compound 5 µM): 0.388
relative viability ([13]; first compound 15.81 µM): 0.347
relative viability ([13]; first compound 50 µM): 0.345
relative viability ([13]; first compound 158.11 µM): 0.29
relative viability ([13]; first compound 500 µM): 0.0712
relative viability ([14]; first compound 5 µM): 0.592
relative viability ([14]; first compound 15.81 µM): 0.526
relative viability ([14]; first compound 50 µM): 0.465
relative viability ([14]; first compound 158.11 µM): 0.12
relative viability ([14]; first compound 500 µM): 0.0545
relative viability ([15]; first compound 5 µM): 0.599
relative viability ([15]; first compound 15.81 µM): 0.58
relative viability ([15]; first compound 50 µM): 0.46
relative viability ([15]; first compound 158.11 µM): 0.0782
relative viability ([15]; first compound 500 µM): 0.0289
relative viability ([16]; first compound 5 µM): 0.703
relative viability ([16]; first compound 15.81 µM): 0.65
relative viability ([16]; first compound 50 µM): 0.703
relative viability ([16]; first compound 158.11 µM): 0.686
relative viability ([16]; first compound 500 µM): 0.672
relative viability ([17]; first compound 5 µM): 0.74
relative viability ([17]; first compound 15.81 µM): 0.759
relative viability ([17]; first compound 50 µM): 0.799
relative viability ([17]; first compound 158.11 µM): 0.477
relative viability ([17]; first compound 500 µM): 0.301
relative viability ([18]; first compound 5 µM): 0.554
relative viability ([18]; first compound 15.81 µM): 0.624
relative viability ([18]; first compound 50 µM): 0.461
relative viability ([18]; first compound 158.11 µM): 0.339
relative viability ([18]; first compound 500 µM): 0.334
relative viability ([19]; first compound 5 µM): 0.651
relative viability ([19]; first compound 15.81 µM): 0.531
relative viability ([19]; first compound 50 µM): 0.62
relative viability ([19]; first compound 158.11 µM): 0.263
relative viability ([19]; first compound 500 µM): 0.0292
relative viability ([20]; first compound 5 µM): 0.653
relative viability ([20]; first compound 15.81 µM): 0.65
relative viability ([20]; first compound 50 µM): 0.693
relative viability ([20]; first compound 158.11 µM): 0.666
relative viability ([20]; first compound 500 µM): 0.614
relative viability ([21]; first compound 5 µM): 0.553
relative viability ([21]; first compound 15.81 µM): 0.491
relative viability ([21]; first compound 50 µM): 0.513
relative viability ([21]; first compound 158.11 µM): 0.114
relative viability ([21]; first compound 500 µM): 0.0544
relative viability ([22]; first compound 5 µM): 0.445
relative viability ([22]; first compound 15.81 µM): 0.415
relative viability ([22]; first compound 50 µM): 0.466
relative viability ([22]; first compound 158.11 µM): 0.346
relative viability ([22]; first compound 500 µM): 0.373
relative viability ([23]; first compound 5 µM): 0.693
relative viability ([23]; first compound 15.81 µM): 0.687
relative viability ([23]; first compound 50 µM): 0.66
relative viability ([23]; first compound 158.11 µM): 0.504
relative viability ([23]; first compound 500 µM): 0.207

Source: the supplement of paper PMC10307832
